Test results taken from patent USRE40387E1, “Pharmaceutical compositions, dosage forms and methods for oral administration of epothilones” (Bristol-Myers Squibb Company, priority 2001, dated 2008).

Assays:
[1] = Pharmacokinetics in rats (intraarterial, oral, intraduodenal); type: in vivo, male Sprague Dawley rats
Experimental: Plasma samples from pharmacokinetic/pharmacodynamic studies were analyzed for the concentration of Compound (A) using an LC/MS/MS (liquid chromatography/mass spectrometry/mass spectrometry) assay with a standard curve range of 5 to 20,000 ng/mL (10 to 40,000 nM) for studies in mice and 2 to 1000 ng/mL (4 to 2000 nM) for studies in rats and dogs. In pharmacodynamic studies, concentrations of Compound (A) were determined using the LC/MS/MS assay with a standard curve range of 5 to 20,000 ng/mL (10 to 40,000 nM) in mouse plasma. The LC/MS/MS assay was also used to determine the concentrations of Compound (B), a degradation product of Compound (A) formed in the stock/dosing solution or in vivo, in rat and dog plasma. The structure of Compound (B) is: [drawing 9]
Compound (A) was given as a single intraarterial (2 mg/kg; 10 min infusion), oral (8 mg/kg), and intraduodenal (8 mg/kg) dose to fasted male Sprague Dawley rats (n×3-6 per group). All dosing solutions were prepared in 20% ethanol. Plasma samples were obtained over a period of 24 h after dosing and the concentration of Compound (A) was determined using the LC/MS/MS assay.

CYP1A2 = molecular target: T1, CYP1A2 (Homo sapiens, UniProt P05177); test: Inhibition of recombinant human CYP1A2 (deethylation of 3-cyano-7-ethoxycoumarin); type: in vitro ADME; conditions: recombinant human CYP isoform
T1 sequence (P05177 1-516): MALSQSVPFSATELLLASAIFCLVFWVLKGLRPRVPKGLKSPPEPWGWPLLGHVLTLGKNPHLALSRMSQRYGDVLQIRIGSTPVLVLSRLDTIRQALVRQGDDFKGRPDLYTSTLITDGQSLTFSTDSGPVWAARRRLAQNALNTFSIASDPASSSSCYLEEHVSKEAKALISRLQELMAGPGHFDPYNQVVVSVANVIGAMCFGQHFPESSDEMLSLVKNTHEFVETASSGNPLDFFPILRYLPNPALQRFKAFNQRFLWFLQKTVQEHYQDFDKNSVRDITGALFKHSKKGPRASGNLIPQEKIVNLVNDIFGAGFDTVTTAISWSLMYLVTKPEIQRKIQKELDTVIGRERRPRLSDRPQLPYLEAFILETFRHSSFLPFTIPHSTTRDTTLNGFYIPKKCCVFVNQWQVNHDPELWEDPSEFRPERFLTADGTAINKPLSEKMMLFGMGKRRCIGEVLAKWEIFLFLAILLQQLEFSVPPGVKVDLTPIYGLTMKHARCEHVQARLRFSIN
Experimental: (§1) The ability of Compound (A) to inhibit the major human cytochrome P450s (CYPs) responsible for the metabolism of drugs was evaluated in vitro using recombinant human CYP isoforms. IC50 values for inhibition of deethylation of 3-cyano-7-ethoxycoumarin (CYP1A2, CYP2C9, CYP2C19, and CYP2D6) and for inhibition of dealkylation of benzoyl-resorufin (CYP3A4) were determined.

CYP2C19 = CYP2C19 (Homo sapiens, UniProt P33261); test: Inhibition of recombinant human CYP2C19 (deethylation of 3-cyano-7-ethoxycoumarin); type: in vitro ADME; conditions: recombinant human CYP isoform
Sequence of CYP2C19 (P33261 whole entry, canonical isoform): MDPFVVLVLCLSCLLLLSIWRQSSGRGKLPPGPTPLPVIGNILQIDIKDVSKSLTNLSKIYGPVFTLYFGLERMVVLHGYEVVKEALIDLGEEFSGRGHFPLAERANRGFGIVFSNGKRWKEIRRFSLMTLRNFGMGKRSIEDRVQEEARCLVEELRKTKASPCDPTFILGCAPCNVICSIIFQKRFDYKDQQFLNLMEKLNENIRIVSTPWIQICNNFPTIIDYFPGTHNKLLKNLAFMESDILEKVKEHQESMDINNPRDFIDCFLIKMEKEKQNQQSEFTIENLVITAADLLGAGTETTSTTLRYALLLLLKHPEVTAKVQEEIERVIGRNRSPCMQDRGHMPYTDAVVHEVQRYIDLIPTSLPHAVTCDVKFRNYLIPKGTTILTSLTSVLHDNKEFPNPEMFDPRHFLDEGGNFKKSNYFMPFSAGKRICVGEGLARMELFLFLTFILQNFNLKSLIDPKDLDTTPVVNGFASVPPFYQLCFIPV
Experimental: as §1

[2] = Pharmacokinetics of oral and IV Compound A in cancer patients; type: in vivo
Experimental: Patients with advanced malignancies were administered Compound A weekly as a 30-minute infusion (a course=3 intravenous weekly administrations). […] Serial plasma sampling was obtained on day 6 and day 1 of course 1 to assess pharmacokinetics by an LC/MS/MS. The LC/MS/MS assay was the same as used in Example 1.
Following oral administration on day 6, 7 mL blood samples was collected into Becton Dickinson Vacutainer tubes with K3EDTA as anticoagulent (lavender-colored top) according to the following schedule (expressed as hours:minutes from the start of the oral administration): predose, 00:15, 00:30, 00:45, 01:00, 01:30, 02:00, 03:00, 04:00, 06:00, 08:00, 24:00, 48:00, and 72:00. Following IV administration on day 1, 7 mL blood samples were collected into Becton Dickinson Vacutainer tubes with K3EDTA as anticoagulent (lavender-colored top) according to the following schedule (expressed as hours:minutes from the start of the IV infusion): predose, 00:15, 00:30 (end-of infusion), 00:45, 01:00, 01:30, 02:00, 03:00, 04:00, 06:00, 08:00, 24:00, 48:00, and 72:00.
Immediately after blood collection, the Vacutainer tubes were inverted several times to ensure mixing with the anticoagulant and then immediately placed on crushed ice. Within 30 minutes of collection, samples were centrifuged for 5 minutes at approximately 2000×g and 0 to 5 EC 5° C. The plasma was then transferred to separate pre-labeled screw-capped polypropylene tubes and stored at −70 EC −70° C. until bioanalysis. Plasma concentrations of Compound A were analyzed using the LC/MS/MS assay described in Example 1.
The plasma concentration versus time data were analyzed using non-compartmental methods. The pharmacokinetic parameters determined for Compound A included the maximum observed plasma concentration (Cmax), time to reach Cmax (Tmax), area under the plasma concentration time curve from time zero to the time of last sampling time T(AUC (0−T)).

[3] = 20 mg/m^2, oral solution with buffer
[4] = 25 mg/m^2, oral solution with buffer
[5] = 305 mg/m^2 as printed, oral solution with buffer

## C/C(=C\c1csc(C)n1)[C@@H]1C[C@@H]2O[C@]2(C)CCC[C@H](C)[C@H](O)[C@@H](C)C(=O)C(C)(C)[C@@H](O)CC(=O)N1 (relative stereo) [Compound (A), [1S-[1R*,3R*(E),7R*,10S*,11R*,12R*,16S*]]-7,11-dihydroxy 8,8,10,12,16-pentamethyl-3-[1-methyl-2-(2-methyl-4-thiazolyl)ethenyl-4-aza-17-oxobicyclo[14.1.0]heptadecane-5,9-dione]
[1]; intraarterial 2 mg/kg
  CLT (mean): 56 mL/min/kg
  VSS (mean): 23 L/kg
  mean T-HALF: 9.6 h
[1]; intraarterial 2 mg/kg, liver blood flow 56 mL/min/kg
  CLT as percent of liver blood flow: 100%
[1]; intraduodenal 8 mg/kg
  Tmax: 4.8 min
  absolute oral bioavailability: 27%
  mean CMAX: 642 ng/mL
[1]; oral 8 mg/kg
  Tmax: 10.2 min
  absolute oral bioavailability: 7.5%
  mean CMAX: 228 ng/mL
CYP1A2
  inhibition of CYP1A2: did not inhibit
CYP2C19
  inhibition of CYP2C19: did not inhibit
[2]; 20 mg/m^2, IV
  AUC(0-T), mean: 796 ng·h/mL
  TMAX, median: 15 min
[2]; 20 mg/m^2, IV, N 3
  CMAX, mean: 251 ng/mL
[2]; [3]
  % F, mean: 43.5%
  AUC(0-T), mean: 404 ng·h/mL
  TMAX, median: 60 min
[2]; 20 mg/m^2, oral solution with buffer, N 3
  CMAX, mean: 142 ng/mL
[2]; 25 mg/m^2, IV
  AUC(0-T), mean: 848 ng·h/mL
  TMAX, median: 30 min
[2]; 25 mg/m^2, IV, N 11
  CMAX, mean: 447 ng/mL
[2]; [4]
  % F, mean: 55.6%
  AUC(0-T), mean: 533 ng·h/mL
  TMAX, median: 30 min
[2]; 25 mg/m^2, oral solution with buffer, N 11
  CMAX, mean: 180 ng/mL
[2]; 305 mg/m^2 as printed, IV
  AUC(0-T), mean: 1155 ng·h/mL
  TMAX, median: 30 min
[2]; 305 mg/m^2 as printed, IV, N 4
  CMAX, mean: 711 ng/mL
[2]; [5]
  % F, mean: 62.2%
  AUC(0-T), mean: 708 ng·h/mL
  TMAX, median: 30 min
[2]; 305 mg/m^2 as printed, oral solution with buffer, N 4
  CMAX, mean: 274 ng/mL
